Experimental data reported in the CheMixHub viscosity set.
± gives the uncertainty stated by the source.

Assay: xn = mol fraction of the nth substance listed

O=P([O-])([O-])[O-].[Na+].[Na+].[Na+] + O
viscosity [mPa·s], 101 kPa
Conditions	x1 = 0.0018	x1 = 0.0054	x1 = 0.0089	x1 = 0.012	x1 = 0.016
298.15 K	0.9742 ± 0.0087	1.167 ± 0.011	1.458 ± 0.013	1.859 ± 0.016	2.317 ± 0.019
303.15 K	0.8777 ± 0.0082	1.054 ± 0.0096	1.31 ± 0.012	1.67 ± 0.015	2.131 ± 0.018
308.15 K	0.7769 ± 0.0076	0.9282 ± 0.0086	1.146 ± 0.011	1.444 ± 0.013	1.868 ± 0.018

CCCC[P+](CCCC)(CCCC)CCCC.[Cl-] + O
Conditions	viscosity [mPa·s]
298.15 K, 100 kPa, x1 = 0.008058	1.485 ± 0.031

O=C([O-])CC(O)(CC(=O)[O-])C(=O)[O-].[Na+].[Na+].[Na+] + O
viscosity [mPa·s]
Conditions	293.15 K	298.15 K	303.15 K
101 kPa, x1 = 0.0013	–	0.94 ± 0.008	–
101 kPa, x1 = 0.0025	–	1.033 ± 0.009	–
101 kPa, x1 = 0.0052	–	1.126 ± 0.01	–
101 kPa, x1 = 0.0067	–	1.21 ± 0.01	–
101 kPa, x1 = 0.0146	–	1.805 ± 0.016	–
101 kPa, x1 = 0.0243	–	3.067 ± 0.028	–
101 kPa, x1 = 0.0364	–	5.952 ± 0.056	–
101 kPa, x1 = 0.0518	–	9.7 ± 0.096	–
101.33 kPa, x1 = 0.002	1.087 ± 0.083	0.959 ± 0.07	0.859 ± 0.064
101.33 kPa, x1 = 0.0054	1.327 ± 0.097	1.168 ± 0.084	1.043 ± 0.074
101.33 kPa, x1 = 0.0093	1.67 ± 0.12	1.466 ± 0.1	1.305 ± 0.091
101.33 kPa, x1 = 0.0126	2.033 ± 0.15	1.78 ± 0.13	1.58 ± 0.11
101.33 kPa, x1 = 0.0165	2.569 ± 0.18	2.242 ± 0.16	1.984 ± 0.14
101.33 kPa, x1 = 0.0196	3.097 ± 0.23	2.696 ± 0.2	2.379 ± 0.17
101.33 kPa, x1 = 0.0232	3.855 ± 0.28	3.346 ± 0.24	2.944 ± 0.21
101.33 kPa, x1 = 0.0269	4.836 ± 0.35	4.185 ± 0.3	3.67 ± 0.26
101.33 kPa, x1 = 0.0297	5.748 ± 0.44	4.963 ± 0.38	4.341 ± 0.33
101.33 kPa, x1 = 0.0335	7.277 ± 0.54	6.263 ± 0.46	5.46 ± 0.39
101.33 kPa, x1 = 0.0366	8.834 ± 0.62	7.583 ± 0.55	6.593 ± 0.45
